US20080280833A1, “Therapeutic Peptides Derived from Urokinase Plasminogen Activator Receptor” (priority 2005, published 2008)

Legend:
[1] = system: LB6-D1HD3 cells; test: 125I-VN cell binding, LB6-D1HD3; design: species or system mouse; details: 125I-VN 0.5 nM, on ice 90 minutes
Procedure: (§1) VN was iodinated using Iodogen (Pierce Chemical Co.) at a specific activity of 30-60×10^6 cpm/mg. Briefly, 10 μg of VN dissolved in 0.1 M tris pH 7.6, 0.1% (v/v) Tween 80, were incubated with 0.5 μCi ^125Iodine for 15 minutes at room temperature, in a volume of 100 μl. The reaction was stopped by adding 1 ml of stop/elution buffer, 0.1 M tris pH 8.1, 0.1% (v/v) Chaps and 50 μl of N-acetyl tyrosine (10 mg/ml in 0.1 M tris pH 7.4). Labeled VN was separated from unbound ^125Iodine by gel chromatography in PD-10 column (Pharmacia) in the stop/elution buffer.
(§2) Cells were seeded in 96-well culture dishes treated overnight with 1.5% gelatin in PBS pH 7.4, grown to confluence in DMEM plus 10% FCS, then serum-starved for 24 hours in DMEM. Total binding was determined by incubating the cells on ice for 90 minutes in binding buffer (DMEM containing 0.1% (w/v) BSA and 10 mM Hepes pH 7.4) plus 0.5 nM ^125I-VN. Nonspecific binding was measured by competition with a 100 fold excess of unlabeled VN. At the end of the incubation time, the cells were washed 3 times with ice-cold binding buffer and once with ice-cold PBS, then lysed in a solution of 1% SDS, 1% Triton X-100 and the associated radioactivity counted. Cell number was determined in 6 wells per lines cultured in parallel, and the results were standardized as cpm/10^5 cells.

[2] = system: HEK-293 cells; test: Chemotaxis assay, HEK-293 cells; format: cell-based, human; details: HEK-293, VN 1 μg/ml
Procedure: (§3) Chemotaxis assay was performed as described (Degryse et al., 1999, 2001a, 2001b) with modified Boyden chambers. Filters (5 μm pore size, Neuro Probe, Gaithersburg, Md.) were treated with collagen I (100 μg/ml) and fibronectin (10 μg/ml, Roche).≈40-50,000 cells in serum-free DMEM were added to the upper well and the chemoattractants tested added to the lower well. When present, antibodies, or inhibitors were added in both wells. After overnight migration at 37° C., cells remaining on the upper surface of filters were scraped off and filters were fixed in methanol and stained in a solution of 10% (w/v) crystal violet in 20% (v/v) methanol. The experiments were performed at least twice in triplicate and the results, expressed as fold over control, are the mean ±SD of the number of cells counted in ten high power fields per filter. Random cell migration, i.e. migration in the absence of chemoattractant, was given the arbitrary value of 100%.

[3] = system: NIH 3T3 cells; test: Chemotaxis assay, NIH 3T3 cells; format: cell-based, mouse; details: NIH 3T3, VN 1 μg/ml
Procedure: as §3

[4] = system: RSMC; test: Immunofluorescence microscopy, actin cytoskeleton and cell morphology; format: cell-based, rat; details: 30 minutes at 37° C., peptide 1 pM or VN 1 μg/ml
Procedure: (§4) As previously described (Degryse et al., 1999; 2004) 15,000-25,000 cells (20-40% confluence), were seeded on glass coverslips in 2 cm^2 well, cultured for 24 hours in DMEM plus 10% FCS, washed with PBS and cultured for another 24 hours without FCS. After stimulation, RSMC were fixed for 20 min at RT with 3% paraformaldehyde, 2% sucrose in PBS pH 7.5, washed 3 times with PBS-BSA 0.2%, permeabilized with 20 mM hepes pH 7.4, 300 mM saccharose, 50 mM NaCl, 3 mM MgCl2, 0.5% (v/v) Triton X-100 for 3 min at 4° C., and washed 3 times with PBS-BSA 0.2%. RSMC were incubated in PBS-BSA 2% for 15 min at 37° C., then with anti-Stat1 primary antibodies for 30 min at 37° C., washed 3 times with PBS-BSA 0.2%, and further incubated with PBS-BSA 2% for 15 min at 37° C. Cells were stained with the secondary TRITC-antibody and with FITC-phalloidin for visualization of filamentous actin, for 30 min at 37° C. DAPI (4′,6-diamidino-2-phenylindole, Roche) was used to label the nucleus. Finally, after 3 washes with PBS-BSA 0.2%, one with distilled water, coverslips were mounted with 20% (w/v) Mowiol. Fluorescence Photographs were taken with a Zeiss Axiophot microscope

[5] = system: LB6 clone 19 cells; test: Chemotaxis assay, LB6 clone 19 cells (wild-type human uPAR); format: cell-based, mouse; details: VN 5 μg/ml
Procedure: as §3

[6] = system: Stat1; test: Immunofluorescence microscopy, Stat1 distribution; format: cell-based, rat; details: RSMC, 30 minutes at 37° C., peptide 1 pM or VN 1 μg/ml
Procedure: as §4
To quantify the activation of Stat1, random pictures were taken and nuclei positively stained for Stat1 were counted and expressed in percent.

[7] = system: LB6 cells; test: Chemotaxis assay, modified Boyden chambers, LB6 cells; format: cell-based, mouse
Procedure: as §3

[8] = system: NIH 3T3-D1HD3 cells; test: Chemotaxis assay, NIH 3T3-D1HD3 cells; format: cell-based, mouse
Procedure: as §3

[9] = system: human HT1080 fibrosarcoma cells; test: Matrigel invasion assay; format: cell-based; details: substance alone, 24 hours at 37° C.
[10] = system: NIH 3T3-uPAR cells; test: Chemotaxis assay, NIH 3T3-uPAR cells; format: cell-based, mouse; details: VN 1 μg/ml
Procedure: as §3

[11] = system: LB6-D1D2 cells; test: Chemotaxis assay, LB6-D1D2 cells (uPAR lacking domain 3); format: cell-based, mouse
Procedure: as §3

[12] = system: HEK-293-uPAR cells; test: Chemotaxis assay, HEK-293-uPAR cells; format: cell-based, human
Procedure: as §3

[13] = system: LB6-D1HD3 cells; test: Chemotaxis assay, LB6-D1HD3 cells (uPAR lacking domain 2); format: cell-based, mouse
Procedure: as §3

[14] = system: LB6-D1D2 cells; test: 125I-VN cell binding, LB6-D1D2; design: species or system mouse; details: 125I-VN 0.5 nM, on ice 90 minutes
Procedure: as §1, §2

[15] = system: LB6 clone 19 cells; test: 125I-VN cell binding, LB6 clone 19; design: species or system mouse; details: 125I-VN 0.5 nM, on ice 90 minutes
Procedure: as §1, §2

“VN: vitronectin purified from human plasma” was tested, and the “VN binding to cells” value [1] was “poorly”, the VN-dependent cell migration [2] was 199.1 % of control and the cell migration [2] was 210.84 ± 26.95 % of control. The VN-dependent cell migration [3] was 222.7 ± 4.8 % of control, the “cell morphology and actin cytoskeleton organization” value [4] was “induced similar changes” and the VN-dependent cell migration ([5]; LB6 clone 19, wild-type uPAR) was 906 ± 22.8 % of control. The “enhancement of VN-directed cell migration of LB6 clone 19 compared to untransfected LB6 cells” value [5] was 3.3 fold, the “Stat1 activation and translocation into the nucleus” value [6] was “reproduced this effect on Stat1 localization” and the VN-dependent cell migration ([7]; LB6 cells, VN 5 μg/ml) was 274 ± 3.8 % of control. The stimulation of chemotaxis ([7]; untransfected parental LB6 cells) was 2.5 fold, the VN-dependent cell migration ([8]; NIH 3T3-D1HD3, VN 1 μg/ml) was 100 ± 4.0 % of control and the stimulation of chemotaxis ([8]; NIH3T3 cells transfected with D1HD3-uPAR, even at 10 μg/ml) was “failed to stimulate”. The “stimulation of Matrigel invasiveness of HT1080 cells” value [9] was “stimulate”, the VN-dependent cell migration [10] was 397 ± 11.1 % of control and the VN-dependent cell migration ([11]; LB6-D1D2, VN 5 μg/ml) was 280 ± 6.0 % of control. The “maximal stimulation of chemotaxis” value ([11]; LB6-D1D2 cells, at 1 μg/ml) was “about four-fold”, the “chemotactic effect of VN in HEK-293-uPAR relative to untransfected HEK-293 cells” value [12] was 2 fold and the VN-dependent cell migration ([12]; HEK-293-uPAR, VN 1 μg/ml) was 394.3 % of control. For the same substance, the cell migration ([12]; HEK-293-uPAR, VN 1 μg/ml) was 417.25 ± 4.64 % of control, the VN-dependent cell migration ([13]; LB6-D1HD3, VN 5 μg/ml) was 102 ± 5.0 % of control and the stimulation of chemotaxis ([13]; LB6 cells transfected with D1HD3-uPAR, even at 10 μg/ml) was “failed to stimulate”. The “VN binding to cells” value [14] was “poorly” and the “VN binding to cells” value [15] was “bound”.
